Laboratory results taken from patent US20050222078A1, “Use of pyrimidine nucleotides for the treatment of affections of the peripheral nervous system” (priority 2002, published 2005).

Key:
[1] = tested on: traumatically affected peripheral nerves; details: Wistar rats, B. Wattig et al. 1991; cited from earlier work
patients with lumbago = assay: Clinical study of UMP versus placebo in patients with lumbago; type: in vivo
Method: In the following the effectivity of pyrimidine nucleotides for the treatment of affections of the peripheral nervous system as well as for the stimulation of the regeneration of nerves is described by example of uridine-5′-monophosphate (UMP) by example of the indication lumbago. 80 female as well as male patients, aged between 20 and 63 years, were separated randomly into two groups, one was treated with UMP and the other with placebo. The treatment ranged over four consecutive days, whereas the treatment could be terminated ahead of schedule as soon as the symptoms were ameliorating in a way, that a further treatment was needless. Applied was once per day into a vein of the arm an injection solution of 19.349 mg UMP (this corresponds to a mass of 12.834 mg uridine) in 250 ml of physiological sodium chloride solution over a time period of 30 minutes. The comparison group received as placebo only the 250 ml of physiological sodium chloride solution without an active agent. For this clinical study only patients were chosen with a pain intensity of at least 40 mm on the VAS scale (VAS: visual analogue scale). The pain intensity is given on the linear VAS scale in the unit “mm” and was determined by prompting the patients to mark on the linear VAS scale the point, which corresponded to their respective pain intensity. Thereby a non sensible pain was given with the value 0 mm and the possibly maximum pain with the value 100 mm. The pain intensity of the patients was continuously checked, whereas the patients also had to indicate the respective duration of the single pain periods. Table 1 proves, that already after a short time period after the initial injection the pain intensity strongly decreases in the resting and moving state in the case of the UMP patient group. The finger-floor distance represents a measure for the mobility, i.e. for the grade of capability to bend the back, and is given in the unit “cm”, whereas the distance between the finger tip in the case of outstretched arms and the curvature in the case of maximal possible bending of the back was measured.

[2] = decrease in the UMP patient group
[3] = decrease of pain in the UMP patient group, VAS
[4] = difference of decrease, UMP versus placebo group

Structure (SMILES)	Filament area of nerve filaments (myelin and axon areas) [1]	Presence of myogelosis (patients with lumbago; UMP patient group, 24 h after inj., base line 100%) [%]	Pain during resting state (patients with lumbago; VAS scale, average of UMP patient group, 24 h after inj., 19.349 mg UMP i.v. once per day, base line 60.3) [mm]	Pain during movement (patients with lumbago; VAS scale, average of UMP patient group, 24 h after inj., base line 76.1) [mm]	Daily duration of pain (patients with lumbago; average of UMP patient group, 24 h after inj., base line 15.8) [h]	Finger-floor distance (patients with lumbago; average of UMP patient group, 24 h after inj., base line 43.8) [cm]	Δ UMP, Daily duration of pain (patients with lumbago; [2]) [h]	Δ UMP, Finger-floor distance (patients with lumbago; [2]) [cm]	Δ UMP, Pain during movement (patients with lumbago; [3]) [mm]	Δ UMP, Pain during resting state (patients with lumbago; [3]) [mm]	Δ UMP − Δ Placebo, Daily duration of pain (patients with lumbago; [4]) [h]	Δ UMP − Δ Placebo, Finger-floor distance (patients with lumbago; [4]) [cm]	Δ UMP − Δ Placebo, Pain during movement (patients with lumbago; [4]) [mm]	Δ UMP − Δ Placebo, Pain during resting state (patients with lumbago; [4]) [mm]	Absolute values of test parameters (pain, daily duration of pain, finger-floor distance) versus placebo group (patients with lumbago; during the further three days)	Decrease in pain compared to placebo patients (patients with lumbago; within the initial 24 h after the first injection)
Nc1ccn([C@@H]2O[C@H](COP(=O)(O)O)[C@@H](O)[C@H]2O)c(=O)n1 [CMP, cytidine-5′-monophosphate]	no comparable results	–	–	–	–	–	–	–	–	–	–	–	–	–	–	–
O=c1ccn([C@@H]2O[C@H](COP(=O)(O)O)[C@@H](O)[C@H]2O)c(=O)[nH]1 [UMP, uridine-5′-monophosphate]	no comparable results	90	46.2	56.9	10.7	32.5	-4.3	−10.1	−17.9	−12.8	-1.4	−2.7	−6.8	−3.4	always below the corresponding absolute values for the placebo group	clear decrease in pain
